From PMC3674108 (Journal of the American Chemical Society, 2013)
“Also recorded” adds a separate entry of the source. Like-named read-outs stand apart in the source and are kept apart here. Marks after values point to notes of the source that are not given here.

Columns and labels:
[1] = molecular target: T1, ecTSase (Escherichia coli, UniProt P0A884); assay: Noncompetitive KIE experiments; assay type: biochemical; conditions: w/ 50 mM MgCl2, 25 °C; for KMCH2H4folate / kcat: 100 μM dUMP, pH 7.5
T1 sequence (P0A884 whole entry): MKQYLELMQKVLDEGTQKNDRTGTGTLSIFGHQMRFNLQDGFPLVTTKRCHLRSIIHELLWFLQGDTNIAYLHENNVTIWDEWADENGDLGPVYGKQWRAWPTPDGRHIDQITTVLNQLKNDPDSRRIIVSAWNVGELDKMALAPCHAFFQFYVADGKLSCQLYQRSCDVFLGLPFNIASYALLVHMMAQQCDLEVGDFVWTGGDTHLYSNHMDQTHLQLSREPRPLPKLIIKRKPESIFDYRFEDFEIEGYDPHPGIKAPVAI

[2] = molecular target: ecTSase-dUMP-Mg^2+ complex; assay type: binding, Escherichia coli; conditions: read-out: KdCH4H4fol; w/ 50 mM MgCl2, 25 °C, calculated using Eq 5
[3] = molecular target: ecTSase-dUMP complex; assay type: binding, Escherichia coli; conditions: read-out: KdCH4H4fol; w/o Mg^2+, 25 °C, calculated using Eq 5
[4] = molecular target: Escherichia coli TSase (ecTSase) (Escherichia coli, UniProt P0A884); assay: Steady-state initial velocities of ecTSase; assay type: biochemical; conditions: for Hill coefficient x (inhibitory binding mode): Eq 3
Escherichia coli TSase (ecTSase), sequence (P0A884 whole entry): as above

[5] = molecular target: T1, ecTSase
[6] = molecular target: T2, apo-ecTSase (Escherichia coli, UniProt P0A884); conditions: read-out: Kd of Mg^2+ for apo-ecTSase; 25 °C, pH 7.5, one-site binding fit
T2 sequence (P0A884 whole entry): as above

[7] = molecular target: T2, apo-ecTSase; assay: biochemical
[8] = molecular target: ecTSase-Mg^2+ complex (Escherichia coli, UniProt P0A884); assay: Fluorescence assay, dUMP titration into ecTSase pre-incubated with MgCl2; assay type: binding
ecTSase-Mg^2+ complex, sequence (P0A884 whole entry, one chain of several): as the sequence (P0A884 whole entry) above

## [2H][C@]12CNc3nc(N)[nH]c(=O)c3N1CN(c1ccc(C(=O)N[C@@H](CCC(=O)O)C(=O)O)cc1)C2 [6R-D-CH2H4fol]
[1]
  KMCH2H4folate: 19 ± 5 µM
  kcat: 2.3 ± 0.2 s⁻¹

## Nc1nc2c(c(=O)[nH]1)N1CN(c3ccc(C(=O)N[C@@H](CCC(=O)O)C(=O)O)cc3)CC1CN2 (stereo partly drawn) [CH2H4fol, N^5,N^10-methylene-5,6,7,8-tetrahydrofolate]
[2]
  Kd: 8 ± 1 µM
[1]
  KMCH2H4folate: 15 ± 1 µM
  kcat: 8.7 ± 0.2 s⁻¹
[3]
  Kd: 17 ± 2 µM
[4]; absence of Mg^2+, best-fit integer
  Hill coefficient x (inhibitory binding mode): 2
[4]; both absence and presence of Mg^2+, best-fit integer, Eq 2
  Hill coefficient n (productive binding mode): 1
[4]; presence of Mg^2+ (50 mM MgCl2), best-fit integer
  Hill coefficient x (inhibitory binding mode): 1
[4]; w/ 50 mM MgCl2, 25 °C, 100 μM dUMP
  KMCH4H4fol: 15 ± 1 µM
[4]; w/o Mg^2+, 25 °C
  KMCH4H4fol: 17 ± 2 µM

## [Ca+2].[Cl-].[Cl-] [CaCl2]
[4]; 50 mM CaCl2, 25 °C
  effect on initial velocities (ionic strength control): no difference; also recorded: no effects on the initial velocities

## [Mg+2] [Mg^2+]
[1]
  observed H/D KIE on kcat (^Dkcat): 3.8 ± 0.3
[5]; w/ 50 mM MgCl2
  AH/AT (isotope effect on the Arrhenius prefactors of the hydride transfer): 6.6 ± 1.3
[5]; w/ 50 mM MgCl2, 25 °C, competitive KIE experiment
  intrinsic H/D KIE (^Dk) on the hydride transfer: 3.9 ± 0.2^a
[4]; 50 mM MgCl2, 5-35 °C
  increase of kcat (hydride transfer rate) by Mg^2+: ca. 7 fold
[4]; 50 mM MgCl2, 25 °C
  increase of the Michaelis constant of dUMP by Mg^2+: ca. 5 fold
  reduction of activation free energy ΔG^‡ of kcat by Mg^2+: ca. 1 kcal/mol
  reduction of entropy of activation TΔS^‡ of kcat by Mg^2+: ca. 1 kcal/mol
[4]; w/ 50 mM MgCl2
  -TΔS^‡ at 25 °C from fitting kcat to the Eyring equation: 12.8 ± 0.2 kcal/mol
[4]; w/ 50 mM MgCl2, 5-35 °C
  ΔH^‡ from fitting kcat to the Eyring equation: 3.4 ± 0.2 kcal/mol
[4]; w/ 50 mM MgCl2, 25 °C
  ΔG^‡ from fitting kcat to the Eyring equation: 16.2 ± 0.4 kcal/mol
[6]
  Kd: 27000 ± 7000 µM

## O=c1ccn([C@H]2C[C@H](O)[C@@H](COP(=O)(O)O)O2)c(=O)[nH]1 [dUMP, 2’-deoxyuridine-5’-monophosphate]
[7]
  Kd: 8.5 ± 0.9 µM
[4]; w/ 50 mM MgCl2, 25 °C, 150 μM CH2H4fol
  KMdUMP: 2.4 ± 0.2 µM
[4]; w/o Mg^2+, 25 °C
  KMdUMP: 0.5 ± 0.1 µM
[8]
  Kd: 14 ± 2 µM
